Results: BindingDB's records for doi:10.1021/jm00164a020 (Merck Sharp & Dohme Research Laboratories, 1990)

Biological target: Gastrin/cholecystokinin type B receptor (Cavia porcellus)
Assay: Inhibition of binding of [125I]gastrin to Cholecystokinin type B receptor from guinea pig gastric glands

IC50	SMILES
44 µM	CCCCCN(CCCCC)C(=O)C(CCC(=O)OCc1ccccc1)NC(=O)Nc1ccc(Cl)cc1 (centres undefined)
13 µM	CCCCCN(CCCCC)C(=O)[C@@H](CCC(=O)O)NC(=O)Nc1cccc(OC)c1
4.1 µM	O=C(O)CC[C@H](NC(=O)c1cc2ccccc2[nH]1)C(=O)N(C1CCCCC1)C1CCCCC1
0.43 µM	CCCCCN(CCCCC)C(=O)C(CCC(=O)N1CCCC1)NC(=O)Nc1ccc(Cl)cc1 (centres undefined)
